Results as given in patent US3965111A, “Triazolothienodiazepine compounds” (Yoshitomi Pharmaceutical Industries, Ltd., priority 1971, dated 1976).

Assays:
Assay type in all cases: in vivo
[1] = test system: fighting episodes in mice; experiment: Suppression of fighting behavior (electric foot-shock induced fighting); details: Mus musculus; female mice, oral, 60 min before foot-shock for 3 min; dose to suppress 50% of fighting pairs
Experimental: I. suppression of Fighting Behavior
Fighting episodes were produced in mice by the method described by Tedeschi et al in Journal of Pharmacology and Experimental Therapeutics, Vol. 125, pp. 28 ff. (1959). Groups of 8 female mice (4 pairs) were given orally, the test compound 60 minutes prior to receiving electric foot-shock for 3 minutes with 530 volts of interrupted direct current, 1.3 milliamperes, 10 Hz. […] The control mice of 81 pairs had shown the fighting episodes of 8.7 times on the average under the same conditions. The ED50, a dose required to suppress 50% of fighting pairs was determined graphically.

[2] = Anti-megimide effect (prevention of tonic extensor convulsion); details: Mus musculus, ip; mice, intraperitoneal, 60 min before megimide 80 mg/kg s.c.; tonic extensor convulsion prevented for 3 hours in 50%; read-out: Antimegimide Effect ED50
Experimental: Iii. anti-megimide Effect
Megimide (80 mg/kg) was administered subcutaneously to groups, each of 6 mice, 60 minutes after intra-peritoneal administration of the test compound. The ED50, a dose required to prevent for 3 hours, the tonic extensor convulsion induced by the administration of megimide in 50% of the animals, was determined graphically.

[3] = Anti-pentylenetetrazole effect (prevention of death); details: Mus musculus, ip; mice, intraperitoneal, 15 min before pentylenetetrazole 150 mg/kg s.c.; dead mice counted at 3 hours; read-out: Antipentylenetetrazole Effect ED50
Experimental: Ii. anti-pentylenetetrazole Effect
Pentylenetetrazole (150 mg/kg) was administered subcutaneously to groups, each of 6 mice, 15 minutes after intraperitoneal administration of the test compound. The number of dead mice were counted 3 hours after the administration of pentylenetetrazole, and then the ED50, a dose required to reduce the number of dead mice to 50%, was determined graphically.

| SMILES | ED50 [1] [mg/kg] | ED50 [2] [mg/kg] | ED50 [3] [mg/kg] |
| --- | --- | --- | --- |
| Cc1cc2c(s1)-n1c(nn(C)c1=O)CN=C2c1ccccc1Cl [A, 2,8-Dimethyl-6-o-chlorophenyl-1,2-dihydro-4H-s-triazolo [3,4-c]-thieno[2,3-e][1,4]diazepin-1-one] | 4.8 | 1.3 | 0.9 |
| CCc1cc2c(s1)-n1c(nn(C)c1=O)CN=C2c1ccccc1Cl [B, 2-Methyl-6-o-chlorophenyl-8-ethyl-1,2-dihydro-4H-s-triazolo[3,4-c]-thieno[2,3-e][1,4]diazepin-1-one] | 0.8 | 5.7 | 1.4 |
| CCc1cc2c(s1)-n1c(n[nH]c1=O)CN=C2c1ccccc1Br [C, 6-o-Bromophenyl-8-ethyl-1,2-dihydro-4H-s-triazolo[3,4-c]-thieno[2,3-e]-[1,4]diazepin-1-one] | 2.7 | 7.2 | 2.6 |
